Experimental data published in patent US20250179016A1, “AMORPHOUS MELANOCORTIN-4 RECEPTOR AGONIST” (LG CHEM, LTD., priority 2020, published 2025).

What was measured:
[1] = Stability assessment: storage of the solid sample, then HPLC analysis; format: physicochemical; details: in % (unit assumed); for Stability result (HPLC analysis), Open ACC: open state, accelerated condition (40° C., 75% RH); for Stability result (HPLC analysis), Closed STR: sealed state, harsh condition, oven at 80° C.
Protocol: About 10-30 mg of the sample was stored for 4 weeks in an open state under the accelerated condition (40° C., 75% RH) or in a sealed state under the harsh condition in an oven at 80° C.

[2] = as above; format: physicochemical; details: in % (unit assumed)

- Stability result (HPLC analysis), Open ACC ([1]; Day 3): 97.95
- Stability result (HPLC analysis), Closed STR ([1]; Day 3): 97.94
- Stability result (HPLC analysis) ([1]; Initial): 97.94
- Stability result (HPLC analysis), Open ACC ([1]; Week 1): 98.04
- Stability result (HPLC analysis), Closed STR ([1]; Week 1): 97.83
- Stability result (HPLC analysis), Open ACC ([1]; Week 2): 98.04
- Stability result (HPLC analysis), Closed STR ([1]; Week 2): 97.88
- Stability result (HPLC analysis), Open ACC ([1]; Week 4): 97.68
- Stability result (HPLC analysis), Closed STR ([1]; Week 4): 97.10
- Stability result (HPLC analysis), Closed RT ([2]; Week 2, stored at room temperature): 97.86
- Stability result (HPLC analysis), Closed RT ([2]; Week 4, stored at room temperature): 97.27
SMILES: CC(C)C(=O)N([C@H]1C[C@@H](C(=O)N2CCOCC2)N(C(=O)[C@@H]2CN(C(C)(C)C)C[C@H]2c2ccc(Cl)cc2)C1)[C@H]1CC[C@@H](C)CC1.Cl [Example 1, N-((3S,5S)-1-((3S,4R)-1-(tert-butyl)-4-(4-chlorophenyl)pyrrolidine-3-carbonyl)-5-(morpholine-4-carbonyl)pyrrolidin-3-yl)-N-((1s,4R)-4-methylcyclohexyl)isobutyramide hydrochloride]
